Counter-ions that a name gives are not always drawn. Like-named read-outs stand apart in the source and are kept apart here.
How the values were obtained:
[1] = system: NCI-H1417 cells; test: In vitro cell proliferation detection (CellTiter-Glo, 7 days); assay type: cell-based; conditions: Homo sapiens, 168 h; NCI-H1417 cells, 7 days, CellTiter-Glo; read-out: NCI-H1417 proliferation inhibition IC50
[2] = target: LSD1 (Homo sapiens (Human), UniProt O60341); test: LSD1 enzyme activity detection (HTRF); assay type: biochemical; conditions: read-out: Inhibition of enzymatic activity of LSD1 IC50

| Compound | IC50 [1] | IC50 ([2]; HTRF, H3K4me1 substrate) | IC50 [2] |
| --- | --- | --- | --- |
| Cc1ccc(-c2c(-c3ccc(C#N)c(F)c3)nc(N3CC4CCC3CC4N)n3ccnc23)cc1O (stereo not shown) [Example 168, 4-(5-(5-amino-2-azabicyclo [2.2.2]octane-2-yl)-8-(3-hydroxy-4-methylphenyl)imidazolo[1,2-c]pyrimidin-7-yl)-2-fluorobenzo nitrile] | 1.24 nM | 0.5 ± 0.1 nM |  |
| COc1ccc(-c2c(-c3ccc(C#N)c(F)c3)nc(N3CC4CCC3CC4N)n3ccnc23)cc1F (stereo not shown) [Example 170, 4-(5-(5-amino-2-azabicyclo[2.2.2]octane-2-yl)-8-(3-fluoro-4-methoxyphenyl)imidazolo[1,2-c]pyrimidin-7-yl)-2-fluorobenzonitrile hydrochloride] | 18.3 nM | 13.2 nM |  |
| N#Cc1ccc(-c2nc(N3C4CCC3CC(N)C4)n3ccnc3c2-c2cc3c(cc2F)CCN3)cc1F (stereo not shown) [Example 171] | 6 nM | 1.9 ± 1.5 nM |  |
| N#Cc1ccc(-c2nc(N3C4CCC3CC(N)C4)n3ccnc3c2-c2cc3nc[nH]c3cc2F)cc1F (stereo not shown) [Example 172, 4-(5-(3-amino-8-azabicyclo[3.2.1]octane-8-yl)-8-(6-fluoro-1H-benzo[d]imidazole-5-yl)imidazolo [1,2-c]pyrimidin-7-yl)-2-fluorobenzonitrile] | 149 nM | 5 ± 4.1 nM |  |
| N#Cc1ccc(-c2nc(N3C4CCC3CC(N)C4)n3ccnc3c2-c2cc3[nH]ncc3cc2F)cc1F (stereo not shown) [Example 173, 4-(5-(3-amino-8-azabicyclo[3.2.1]octane-8-yl)-8-(5-fluoro-1H-indazole-6-yl)imidazolo[1,2-c]pyrimidin-7-yl)-2-fluorobenzonitrile hydrochloride] | 8.15 nM | 0.8 ± 0.2 nM |  |
| Cn1ccc2cc(F)c(-c3c(-c4ccc(C#N)c(F)c4)nc(N4C5CCC4CC(N)C5)n4ccnc34)cc21 (stereo not shown) [Example 174, 4-(5-(3-amino-8-azabicyclo[3.2.1]octane-8-yl)-8-(5-fluoro-1-methyl-1H-indole-6-yl)imidazolo [1,2-c]pyrimidin-7-yl)-2-fluoro benzonitrile] | 14.4 nM | 13.2 nM |  |
| COc1ccc(-c2c(-c3ccc(C#N)nc3)nc(N3C4CCC3CC(N)C4)n3ccnc23)cc1F (stereo not shown) [Example 176, 5-(5-(3-amino-8-azabicyclo[3.2.1]octane-8-yl)-8-(3-fluoro-4-methoxyphenyl)imidazolo[1,2-c]pyrimidin-7-yl) picolinonitrile hydrochloride] | 21.6 nM | 16.8 nM |  |
| COc1ccc(-c2c(-c3ccc(C#N)cc3)nc(N3C4CCC3CC(N)C4)n3ccnc23)cc1F (stereo not shown) [Example 178, 4-(5-(3-amino-8-azabicyclo [3.2.1]octane-8-yl)-8-(3-fluoro-4-methoxyphenyl)imidazolo[1,2-c]pyrimidin-7-yl) benzonitrile hydrochloride] | 6.24 nM | 3.8 ± 2.2 nM |  |
| COc1ccc(-c2c(-c3ccc(C#N)c(F)c3F)nc(N3C4CCC3CC(N)C4)n3ccnc23)cc1F (stereo not shown) [Example 183, 4-(5-(3-amino-8-azabicyclo[3.2.1]octane-8-yl)-8-(3-fluoro-4-methoxyphenyl)imidazolo[1,2-c]pyrimidin-7-yl)-2,3-difluorobe nzonitrile hydrochloride] | 6.28 nM | 3.6 ± 0.6 nM |  |
| COc1ccc(-c2c(-c3ccc(C#N)c(O)c3)nc(N3C4CCC3CC(N)C4)n3ccnc23)cc1F (stereo not shown) [Example 185, 4-(5-(3-amino-8-azabicyclo[3.2.1]octane-8-yl)-8-(3-fluoro-4-methoxyphenyl)imidazolo[1,2-c]pyrimidin-7-yl)-2-hydroxybenzonitrile] | 160 nM | 14.1 nM |  |
| N#Cc1ccc(-c2nc(N3C4CCC3CC(N)C4)n3ccnc3c2-c2cc3nonc3cc2F)cc1F (stereo not shown) [Example 186, 4-(5-(3-amino-8-azabicyclo[3.2.1]octane-8-yl)-8-(6-fluorobenzo[c] [1,2,5]oxadiazole-5-yl)imidazolo [1,2-c]pyrimidin-7-yl)-2-fluorobenzonitrile] | 18 nM | 17.3 nM |  |
| COc1ccc(-c2c(-c3ccc(C#N)c(F)c3)nc(N3CCC(N)CC3)n3c(C)cnc23)cc1O [Example 187, 4-(5-(4-aminopiperidin-1-yl)-8-(3-hydroxy-4-methoxyphenyl)-3-methylimidazolo[1,2-c]pyrimidin-7-yl)-2-fluorobenzonitrile] | 1.11 nM | 0.8 ± 0.1 nM |  |
| Cc1ccc(-c2c(-c3ccc(C#N)cc3)cc3c(N4CC(N)C4)nccn23)cc1 [Example 188, 4-(1-(3-aminoazetidin-1-yl)-6-(p-tolyl)pyrrolo[1,2-a]pyrazin-7-yl)benzonitrile hydrochloride] | > 1000 nM | 35 nM |  |
| CN[C@@H]1CCCN(c2nccn3c(-c4ccc(C)cc4)c(-c4ccc(C#N)cc4)cc23)C1 [Example 189, (R)-4-(1-(3-(methylamino)piperidin-1-yl)-6-(p-tolyl)pyrrolo[1,2-a]pyrazin-7-yl)benzonitrile hydrochloride] | 4.04 nM | 0.29 ± 0.11 nM |  |
| Cc1ccc(-c2c(-c3ccc(C#N)cc3)cc3c(N4CCN(C)CC4)nccn23)cc1 [Example 190, 4-(1-(4-methylpiperazin-1-yl)-6-(p-tolyl)pyrrolo [1,2-a]pyrazin-7-yl) benzonitrile] | 1120 nM | 0.331 nM |  |
| Cc1ccc(-c2c(-c3ccc(C#N)cc3)cc3c(N4CCC(N)C4)nccn23)cc1 (stereo not shown) [Example 192, 4-(1-(3-aminopyrrolidin-1-yl)-6-(p-tolyl)pyrrolo [1,2-a]pyrazine-7-yl) benzonitrile hydrochloride] | 81 nM | 10.6 nM |  |
| Cc1ccc(-c2c(-c3ccc(C#N)cc3)cc3c(N4CCC(N)CC4)nccn23)cc1 [Example 193, 4-(1-(4-aminopiperidin-1-yl)-6-(p-tolyl)pyrrolo[1,2-a]pyrazin-7-yl)benzonitrile hydrochloride] | 61.4 nM | 1.72 nM |  |
| Cc1ccc(-c2c(-c3ccc(C#N)cc3)cc3c(N4CCC(N)CC4)nncn23)cc1 [Example 196, 4-(1-(4-aminopiperidin-1-yl)-6-(p-tolyl)pyrrolo[1,2-d][1,2,4]triazin-7-yl)benzonitrile hydrochloride] | 656 nM |  | 37.7 nM |
| CNC1CCCN(c2ccnn3c(-c4ccc(C)cc4)c(-c4ccc(C#N)cc4)cc23)C1 (stereo not shown) [Example 197, 4-(4-(3-(methylamino)piperidin-1-yl)-7-(p-tolyl)pyrrolo[1,2-b]pyridazin-6-yl]benzonitrile hydrochloride] | 24.2 nM |  | 9.44 ± 5.96 nM |
| Cc1sc(C(=O)N2C3CCC2CC(N)C3)cc1-c1ccc(C#N)c(F)c1 (stereo not shown) [Example 199, 4-(5-(3-amino-8-azadicyclo [3.2.1]octane-8-carbonyl)-2-methylthiophene-3-yl)-2-fluorobenzonitrile hydrochloride] | > 1000 nM | 72 nM |  |
| N#Cc1ccc(-c2cc(C(=O)N3C4CCC3CC(N)C4)sc2-c2ccc3cc[nH]c3c2)cc1F (stereo not shown) [Example 200, 4-(5-(3-amino-8-azabicyclo [3.2.1]octane-8-carbonyl)-2-(1-hydro-indol-6-yl)thiophen-3-yl)-2-fluorobenzonitrile] | 34 nM | 0.69 nM |  |
| N#Cc1ccc(-c2cc(C(=O)N3C4CCC3CC(N)C4)sc2-c2ccccn2)cc1F (stereo not shown) [Example 201, 4-(5-(3-amino-8-azabicyclo [3.2.1]octane-8-carbonyl)-2-(pyridin-2-yl)thiophen-3-yl)-2-fluorobenzonitrile Hydrochloride] | 384 nM | 26.8 nM |  |
| N#Cc1ccc(-c2cc(C(=O)N3C4CCC3CC(N)C4)sc2-c2ccncn2)cc1F (stereo not shown) [Example 202, 4-(5-(3-amino-8-azabicyclo [3.2.1]octane-8-carbonyl)-2-(pyrimidin-4-yl)thiophen-3-yl)-2-fluoro-benzonitrile hydrochloride] | > 1000 nM | 77.1 nM |  |
| N#Cc1ccc(-c2cc(C(=O)N3C4CCC3CC(N)C4)sc2-c2ccc3cn[nH]c3c2)cc1F (stereo not shown) [Example 203, 4-(5-(3-amino-8-azabicyclo [3.2.1]octane-8-carbonyl)-2-(1H-indazol-6-yl)thiophen-3-yl)-2-fluoro-benzonitrile] | 37.6 nM | 0.39 nM |  |
| Cc1noc2cc(-c3sc(C(=O)N4C5CCC4CC(N)C5)cc3-c3ccncc3)c(F)cc12 (stereo not shown) [Example 204, (3-amino-8-azabicyclo [3.2.1]octane-8-yl) (5-(5-fluoro-3-methylbenzo [d]isoxazol-6-yl)-4-(pyridin-4-yl)thiophen-2-yl)methanone hydrochloride] | 118 nM | 12.2 ± 7.3 nM |  |
| Cc1noc2c(-c3sc(C(=O)N4C5CCC4CC(N)C5)cc3-c3ccc(C#N)c(F)c3)c(F)ccc12 (stereo not shown) [Example 209, 4-(5-(3-amino-8-azabicyclo [3.2.1]octan-8-carbonyl)-2-(6-fluoro-3-methylbenzo[d]isoxazol-7-yl)thiophen-3-yl)-2-fluoro-benzonitrile hydrochloride] | 1.44 nM | 0.507 nM |  |
| N#Cc1ccc(-c2cc(C(=O)N3C4CCC3CC(N)C4)sc2-c2ccc3oc(=O)[nH]c3c2)cc1F (stereo not shown) [Example 214, 4-(5-(3-amino-8-azabicyclo [3.2.1]octan-8-carbonyl)-2-(2-carbonyl-2,3-dihydrobenzo[d]oxazol-5-yl)thiophen-3-yl)-2-fluoro benzonitrile hydrochloride] | 493 nM | 0.47 ± 0.13 nM |  |
| N#Cc1ccc(-c2cc(C(=O)N3C4CCC3CC(N)C4)sc2-c2cc3[nH]nnc3cc2F)cc1F (stereo not shown) [Example 216, 4-(5-(3-amino-8-azabicyclo [3.2.1]octan-8-carbonyl)-2-(5-fluoro-1H-benzo [d][1,2,3]triazol-6-yl)thio-phen-3-yl)-2-fluorobenzo-nitrile hydrochloride] | 20.9 nM | 8.14 ± 1.84 nM |  |
| CC(C)(O)Cn1ncc2cc(F)c(-c3sc(C(=O)N4C5CCC4CC(N)C5)cc3-c3ccc(C#N)c(F)c3)cc21 (stereo not shown) [Example 217, 4-(5-(3-amino-8-azabicyclo [3.2.1]octan-8-carbonyl)-2-(5-fluoro-1-(2-hydroxy-2-methylpropyl)-1H-indazol-6-yl)thiophen-3-yl)-2-fluorobenzonitrile hydrochloride] | 67.8 nM | 12.8 nM |  |
